# Columns and labels:
# male mice = test: YKL-05-099 once daily for 2 weeks: bone RNA, static and dynamic histomorphometry; format: in vivo, mouse; conditions: 6 mg/kg once daily i.p.
# Protocol: Whole cell extracts were generated, followed by immunoblotting. […] RNA was prepared, and gene expression analyzed by RT-qPCR. […] 2 hours later, animals were sacrificed, RNA was prepared from femurs, and gene expression analyzed by RT-qPCR. […] Animals were sacrificed 2 hours after the final dose, and RNA from femurs analyzed for the indicated genes. BGLAP encodes osteocalcin. * indicated p<0.01 versus vehicle, # indicates p<0.05 versus vehicle. (FIGS. 8E to 8K), static and dynamic histomorphometry were performed on the tibia from the same mice as in FIG. 8D. Each data point represents an individual mouse, p values for each difference are shown on the graph. (FIG. 8L) Representative photomicrograph showing increased osteoblasts on cancellous bone surfaces from YKL-05-099-treated mice.
# To determine effects on bone mass and cellular composition/activity, static and dynamic histomorphometry were performed. […] Other than the observed reduction in osteoclast numbers, these findings are quite similar to the effects of once daily PTH treatment.
# All animals were housed in the Center for Comparative Medicine at the Massachusetts General Hospital, and all experiments were approved by the hospital's Subcommittee on Research Animal Care. HDAC5-null mice (70) and HDAC4 f/f mice (71) were generously provided by Dr. Eric Olson (University of Texas Southwestern Medical Center, Dallas, TX) and were backcrossed to C57B/6 mice for at least 6 generations. DMP1-Cre mice (27) were generously provided by Dr. Jian (Jerry) Feng (Texas A&M University, Baylor College of Dentistry, Dallas, TX). “DKO” HDAC4/5 mice were of the following genotype: HDAC4f/f; HDAC5−/−; DMP1-Cre. SIK2 f/f mice were as described (40), and were bred to DMP1-Cre animals to generate SIK2^OcyKO mice. ES cells carrying the targeted SOST allele Sost^tm1(KOMP)Vleg, in which the SOST coding sequence has been replaced by LacZ and floxed Neo cassette, were obtained from the Knockout Mouse Project (KOMP) Repository. Clone VG10069-BE8 was injected into blastocysts, and the resulting SOST+/− mice were crossed to HDAC5 mutant animals to generate compound heterozygous mice. In all instances, skeletal phenotypes were evaluated in 8 week-old sex-matched littermates. For acute effects of PTH on bone gene expression, animals were treated with PTH (1-34, 300 μg/kg, subcutaneous administration) and then sacrificed 90 minutes later. For acute effects of YKL-05-093 on bone gene expression, animals were treated with the indicated doses of compound (dissolved in PBS+25 mM HCl) or solvent via intraperitoneal injections, and sacrificed 2 hours later. […] For in vivo sclerostin antibody treatment, mice were treated twice weekly with sclerostin antibody (50 mg/kg, subcutaneous administration, generously provided by Dr. Michael Ominsky, Amgen) for 6 weeks. Power calculations were performed based on pilot experiments in which standard deviations and magnitudes of effect sizes were estimated. For experiments in which mice were treated with either vehicle or PTH (or YKL-05-093), mice were assigned to alternating treatment groups in consecutive order.
# Right tibia from 8-week-old mice were subjected to bone histomorphometric analysis. The mice were injected 20 mg/kg body weight of calcein and 40 mg/kg body weight of demeclocycline on 7 and 2 days before necropsy, respectively. The tibia was dissected and fixed in 70% ethanol for 3 days. Fixed bones were dehydrated in graded ethanol, then infiltrated and embedded in methylmethacrylate without demineralization. Undecalcified 4-μm-thick longitudinal sections were obtained using microtome (RM2255, Leica Biosystems., IL, USA). Sections were left unstained for dynamic parameters measurement, and consecutive sections were stained with tartrate-resistant acid phosphatase and counterstained with toluidine blue for measurement of cellular parameters. […]
# male C57B/6 mice = test: YKL-05-099 dose range once daily for two weeks: histomorphometry; format: in vivo, mouse; conditions: 18 mg/kg once daily
# Protocol: Right tibia from 8-week-old mice were subjected to bone histomorphometric analysis. The mice were injected 20 mg/kg body weight of calcein and 40 mg/kg body weight of demeclocycline on 7 and 2 days before necropsy, respectively. The tibia was dissected and fixed in 70% ethanol for 3 days. Fixed bones were dehydrated in graded ethanol, then infiltrated and embedded in methylmethacrylate without demineralization. Undecalcified 4-μm-thick longitudinal sections were obtained using microtome (RM2255, Leica Biosystems., IL, USA). Sections were left unstained for dynamic parameters measurement, and consecutive sections were stained with tartrate-resistant acid phosphatase and counterstained with toluidine blue for measurement of cellular parameters. A standard dynamic bone histomorphometric analysis of the tibial metaphysis was done using the Osteomeasure analyzing system (Osteometrics Inc., Decatur, GA, USA). Measurements were performed in the area of secondary spongiosa, 200 μm below the proximal growth plate. The observer was blinded to the experimental genotype at the time of measurement. The structural, dynamic and cellular parameters were calculated and expressed according to the standardized nomenclature (75).
# Static and dynamic histomorphometry was performed (see FIG. 24). […] Effects on osteoclast differentiation were assessed by TRAP secretion assays and counting multi-nucleated TRAP-positive cells (see FIG. 26). M-CSF signaling in primary macrophages, was assessed by immunoblotting for MCSF-receptor Y723 phosphorylation and ERK1/2 phosphorylation (see FIG. 27).
smiles,measurement,setting,value
COc1ccc(N2C(=O)N(c3c(C)cccc3Cl)Cc3cnc(Nc4ccc(C5CCN(C)CC5)cc4OC)nc32)nc1 [YKL-05-099],RANKL levels in bone RNA,male mice,increased
same,SOST in bone RNA,male mice,trend towards reduced SOST
same,bone formation rate,male mice,increased bone formation rate
same,cancellous bone mass,male mice,increased cancellous bone mass
same,matrix apposition rate,male mice,trend towards increased matrix apposition rate
same,mineralizing surface,male mice,increased mineralizing surface
same,osteoblast marker genes (osteocalcin and COL1A1),male mice,significantly increased
same,osteoblast numbers,male mice,increased osteoblast numbers
same,osteoclast numbers,male mice,reduced osteoclast numbers
same,osteoid surface,male mice,increased
same,Ob.S/BS,male C57B/6 mice; p<0.01 vs vehicle,16.8±1.3
same,trabecular bone volume,"male C57B/6 mice; p<0.01 vs vehicle, in % (unit assumed)",16.3±2.0
same,Oc.S/BS,male C57B/6 mice; p<0.05 vs vehicle,1.59±0.4
